The numbers were not newly measured in patent US20260306436A1, “TRETINOIN LIPOSOME FORMULATIONS AND USES THEREOF TO TREAT CANCER” (Highfield BioPharmaceuticals Corporation, priority 2023, published 2026), which cites them from elsewhere.

Each structure is given as a SMILES string.

One data set concerns BSA. The following applies: stated for the release system with BSA.
The conditions of data set [1]: background statement.
For data set [2] the following is noted: background statement. This is another data set of the same source.

With `CC1=C(/C=C/C(C)=C/C=C/C(C)=C/C(=O)O)C(C)(C)CCC1` [all-trans retinoic acid], in the data set with BSA, the Protein binding rate is 95%. Moreover, in data set [1], the Water solubility entry is on record as “very low”. The Plasma half-life result in data set [2] is “short”.
